Tests used:
Type in all cases: cell-based, human
THP-1 cell line [1] = test: Inflammation-related cytokines in the medium of PMA and LPS-induced THP-1 cells (ELISA); conditions: THP-1, 150 nm PMA and 0.1 µg/mL LPS, native GIP 1 µM, long-acting GIP derivative 0.1 µM or 1 µM, FIG. 2B
Experimental: Additionally, in order to measure the concentrations of the inflammation-related cytokines IL-6, IL-12/23 p40, IL-1β, and TNF-α in the medium of the THP-1 cell line, 150 nm of phorbol 12-myristate 13-acetate (PMA) and 0.1 µg/mL of LPS were added thereto to induce an inflammatory reaction, and the cells were treated with the native GIP and the long-acting GIP derivative: the native GIP was used at a concentration of 1 µM and the long-acting GIP derivative was diluted to a concentration of 0.1 µM or 1 µM. As the medium, Human IL-6 ELISA Kit (Abcam, US), Human IL-12/23 p40 ELISA Kit (Abcam, US), Human IL-1beta ELISA Kit (Abcam, US), and Human TNF alpha ELISA Kit (Abcam, US)were used for quantification.

A549 cell line = test: Inflammation and EMT in A549 cells treated with TGF-β1 and LPS (qPCR); conditions: native GIP 10 µM, long-acting GIP derivative 1 or 10 µM
Experimental: The A549 cell line, a human alveolar epithelial cell, was used to confirm the inflammatory and fibrosis amelioration effect of long-acting GIP derivatives on COPD in vitro. The purpose of this experiment was to determine the effect of alveolar epithelial cells on epithelial mesenchymal transition (EMT), which is known to be important in the pulmonary fibrosis process.
The A549 cell line was cultured in a F-12K medium supplemented with 10% fetal bovine serum (FBS), 100 µg/mL streptomycin, and 100 U/mL penicillin at a temperature of 37 °C and in 5% carbon dioxide conditions. Cell lines were sequentially treated with TGF-β1 and LPS to induce inflammatory responses and EMT. The native GIP was added at the concentration 10 µM, and the long-acting GIP derivative was diluted at a concentration of 1 or 10 µM and added. As the long-acting GIP derivative, the long-acting GIP conjugate (SEQ ID NO: 17) prepared in Example 3 was used.
RNA was isolated from the A549 cell line after the treatment was completed by using the RNeasy Mini Kit (Qiagen, US), and cDNA was synthesized using the iScript™ cDNA Synthesis Kit (Bio-rad, US). Regarding the synthesized cDNA, the expression level of inflammation and EMT-related genes was confirmed by using the QuantStudio 6 Flex Real-Time PCR System (Applied Biosystems, US). Delta Delta Ct method was used, and beta-actin was used as a housekeeping gene. […]

THP-1 cell line [2] = test: Anti-inflammatory effect in LPS-induced THP-1 cells, mRNA level (qPCR); conditions: THP-1, 1 µg/mL LPS; native GIP 10 µM, long-acting GIP derivative 1 or 10 µM; FIG. 2A
Experimental: To confirm the anti-inflammatory effect of the long-acting GIP derivative on COPD in vitro, a human monocyte/macrophage cell line, THP-1, was used. Macrophages are known to induce the progression of inflammation by secreting cytokines and chemokines at the initial stage of infection and mobilizing other immune cells.
The THP-1 cell line was cultured in a RPMI 1640 medium supplemented with 10% fetal bovine serum (FBS), 100 µg/mL streptomycin, 100 U/mL penicillin, and 0.05 mM β-mercaptoethanol, at a temperature of 37 °C in 5% carbon dioxide conditions. An inflammatory response was induced by adding 1 µg/mL of lipopolysaccharide (LPS) to the cell line, and the effect on the inflammatory response by LPS when treated with native GIP and long-acting GIP derivatives was confirmed at the mRNA level. The native GIP was added at the concentration 10 µM, and the long-acting GIP derivative was diluted at a concentration of 1 or 10 µM and added. As the long-acting GIP derivative, the long-acting GIP conjugate (SEQ ID NO: 17) prepared in Example 3 was used.
RNA was isolated from the THP-1 cell line after the treatment was completed by using the RNeasy Mini Kit (Qiagen, US), and cDNA was synthesized using the iScript™ cDNA Synthesis Kit (Bio-rad, US). […]

In the case of “native GIP: hormone composed of 42 amino acids secreted from the K cells of the small intestine (YAEGTFISDYSIAMDKIHQQDFVNWLLAQKGKKNDWKHNITQ; Gastric inhibitory polypeptide; UniProt P09681 52-93, looked up)”, the “concentrations of the inflammation-related cytokines IL-6, IL-12/23 p40, IL-1β, and TNF-α in the medium” value (THP-1 cell line [1]) is reported as “decreased”, the “relative expression levels of inflammation-related genes IL-6, IL-12, and TNF-α” value (A549 cell line; FIG. 3A) is reported as “significantly decreased” and the “relative expression levels of EMT marker fibronectin, Col1α1, and Col3α1” value (A549 cell line; FIG. 3B) is reported as “decreased”. The “relative expression levels of inflammation-related genes IL-6, IL-12, IL-1β, and TNF-α” value (THP-1 cell line [2]) was “decreased”.
